How the values were obtained:
[1] = system: CD45+ leukocytes from AML patient PBMCs; assay: ex vivo viability of AML patient PBMCs, CD45+ leukocytes; format: cell-based, human; settings: 16-hour and 40-hour exposure; imetelstat sodium 25, 50 μM and/or venetoclax 20, 100 nM; mean of four patients
Procedure: AML cell lines (see Example 1) and AML patient peripheral blood mononuclear cell (“PBMC”) samples, which were obtained from AML patient whole blood after Ficoll purification, were treated with imetelstat sodium or venetoclax alone, or in combination, and viable and apoptotic populations of cells were evaluated by flow cytometry. Telomerase activity, hTERT expression and mitochondrial dysfunction were investigated for mechanism of action. […] Apoptosis was measured via flow cytometry staining for Annexin V and propidium iodide. Unstained (i.e. double negative) cells constitute viable cells remaining after treatment.
Specifically, whole blood from AML patients (n=4) was purified using Ficoll-Paque Plus (GE Healthcare catalog #17-1440-03) to purify PBMCs. […]
After 16- and 40-hours of treatment, cells were measured for healthy, early apoptotic and apoptotic populations with an Annexin V (interior cell membrane stain) plus propidium iodide (PI, DNA binding dye) flow cytometry assay kit (BioLegend catalog #640914) as described in the Example 1. […] Means and standard deviations were determined for the four patients for CD45^+ (leukocytes) and CD45^+/CD34^+ (leukemic stem cells) populations.

[2] = system: telomerase; assay: telomerase activity by qPCR TRAP in KG-1 lysates; format: cell-based, human; settings: 50 μM imetelstat sodium or 20 nM ABT-199
Procedure: (§1) Samples from the previous section for protein analysis were collected as cell pellets by centrifugation at 5 minutes for 1500K for lyses and protein extraction. Protein lysates were analyzed by utilizing a modified method combined from two primary sources (Hou, et al. (2001) 43(3) 519-524 and Nature Protocols (2006) 1 (3) 1583-1590). Lysates were generated by adding 80 μL of a 10 mM Tris-EDTA, 1% NP-40, 10% Glycerol, 150 mM NaCl, 1 mM MgCl2, 250 μM Sodium Deoxycholate, 100 μM AEBSF, 5 mM 2-mercaptoethanol buffer and incubating on ice for 30 minutes. Lysates were centrifuged for 15 minutes at max speed and at 4° C. to pellet cellular debris. Protein yield from clarified lysates were quantified using a BCA assay (ThermoFisher catalog 23252) and subjected to a qPCR TRAP-based assay to determine relative telomerase activity (Power SYBR Green PCR Master Mix—ThermoFisher #4367659) using a ViiA7 Real-Time PCR system from ThermoFisher. In this assay, protein lysates are exposed to synthetic oligonucleotides mimicking telomere sequences in the presence of excess dNTPs and SYBR green dye. The greater the activity of telomerase, the greater extension of the synthetic primers, and therefore greater staining of nucleic acid and signal generated by the SYBR dye. This signal is compared to a standard curve of control protein lysate to determine the relative telomerase activity between samples.

[3] = system: telomerase; assay: telomerase activity by qPCR TRAP in MOLM-13 lysates; format: cell-based, human; settings: 50 μM imetelstat sodium or 20 nM ABT-199
Procedure: as §1

[4] = system: MOLM-13 AML disseminated model; assay: MOLM-13 AML disseminated mouse model, survival; format: in vivo; settings: MOLM-13 implanted SCID-beige mice; imetelstat sodium or MM 30 mg/kg ip TIW x 4 weeks, ABT-199 100 mg/kg po qd x 4 weeks
Procedure: An in vivo study in the MOLM-13 AML disseminated mouse model was conducted to assess efficacy and survival. Specifically, on day 0 of the study, MOLM-13 AML tumor cells were implanted into mice. […] The percent survival of the mice was assessed as a function of time (days post tumor cell implantation). The study lasted for a total of 108 days (77 days after stopping treatment).
Fifty female SCID-beige mice (6-week-old, Jackson Laboratory) were intravenously injected with 1 million MOLM-13 cells and randomly divided into five groups.
Mice were observed daily and body weights were measured twice a week. The survival of mice in each group was followed. The study was terminated on day 108, which was 77 days post last treatment. The increased life span (“ILS”) was evaluated for each group, and the % ILS versus the vehicle control was calculated as: % ILS=100×(T−C)/C where T is the median survival of the treatment group and C is the median survival of the control group.

CC1(C)CCC(CN2CCN(c3ccc(C(=O)NS(=O)(=O)c4ccc(NCC5CCOCC5)c([N+](=O)[O-])c4)c(Oc4cnc5[nH]ccc5c4)c3)CC2)=C(c2ccc(Cl)cc2)C1 [ABT-199, 4-[4-[[2-(4-chlorophenyl)-4,4-dimethylcyclohexen-1-yl]methyl]piperazin-1-yl]-N-[3-nitro-4-(oxan-4-ylmethylamino)phenyl]sulfonyl-2-(1H-pyrrolo [2,3-b]pyridin-5-yloxy)benzamide]
viability of CD45+ leukocytes derived from AML patients [1]: only moderately impacted | telomerase activity as compared to control ([2]; KG-1, 48 hours): no effect | telomerase activity as compared to control ([2]; KG-1, 96 hours): ~80% | telomerase activity as compared to control ([3]; MOLM-13, 48 hours): no effect | telomerase activity as compared to control ([3]; MOLM-13, 96 hours): ~70% | % ILS (increased life span as compared to vehicle control) [4]: 36.3% | Median Survival [4]: 30 days
